Reference: patent US5681826A, “Saccharide composition with reduced reducibility, and preparation and uses thereof” (Kabushiki Kaisha Hayashibara Seibutsu Kagaku Kenkyujo, priority 1994, dated 1997)
Values belong to the compound of their own block, whether it stands above or below them.

Legend:
[1] = Acute toxicity test (Experiment 8); conditions: mouse, in vivo, po
Text: (§1) By using 7-week old dd-strain mice, the non-reducing saccharide preparation P I, P II, P III, P IV or P V was orally administered to the mice for acute toxicity test.

mice = experiment: Acute toxicity test (Experiment 8); conditions: oral, highest possible doses
Text: as §1

[2] = target: T1, trehalose-releasing enzyme (Rhizobium sp. M-11, UniProt Q53238); experiment: Action of trehalose-releasing enzyme on α-glycosyltrehalose and maltooligosaccharides (Table 13); type: biochemical; conditions: 20% substrate, 2 units/g, 40°C., pH 7.0, 48 hours; label = substrate
T1 construct: M-11 culture
T1 sequence (Q53238 1-596): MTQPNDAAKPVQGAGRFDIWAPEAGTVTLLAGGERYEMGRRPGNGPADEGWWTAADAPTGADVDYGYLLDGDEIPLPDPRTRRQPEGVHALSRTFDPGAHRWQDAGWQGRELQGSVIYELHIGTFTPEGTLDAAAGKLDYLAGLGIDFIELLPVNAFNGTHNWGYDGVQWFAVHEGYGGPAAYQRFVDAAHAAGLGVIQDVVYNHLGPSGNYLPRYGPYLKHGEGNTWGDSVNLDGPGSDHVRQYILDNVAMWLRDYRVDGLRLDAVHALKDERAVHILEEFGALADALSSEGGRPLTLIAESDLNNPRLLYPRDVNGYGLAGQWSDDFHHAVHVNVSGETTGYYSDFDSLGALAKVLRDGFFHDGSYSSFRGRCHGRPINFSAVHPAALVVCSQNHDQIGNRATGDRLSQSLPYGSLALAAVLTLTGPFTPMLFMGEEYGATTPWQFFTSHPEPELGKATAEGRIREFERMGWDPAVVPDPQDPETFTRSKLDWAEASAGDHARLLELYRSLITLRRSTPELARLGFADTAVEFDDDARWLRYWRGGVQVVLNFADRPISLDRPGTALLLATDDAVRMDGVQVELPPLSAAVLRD
Description: An aqueous solution containing 20%, d.s.b., of one of the above 5 non-reducing saccharide preparations, namely α-glycosyltrehalose preparations, was prepared, followed by mixing it with 2 units/g substrate, d.s.b., of the purified trehalose-releasing enzyme obtained in Experiment 15, and subjecting the resultant to an enzymatic reaction at 40° C. and pH 7.0 for 48 hours. The resultant each reaction mixture was desalted, and analyzed for saccharide composition on HPLC using "WAKOBEADS WB-T-330 column", a column of Wako Pure Chemical Industries Ltd., Tokyo, Japan. As a control, a fresh preparation of the same trehalose-releasing enzyme was allowed to act on maltotriose, maltotetraose, maltopentaose, maltohexaose or maltoheptaose, and the resultant each reaction mixture was analyzed for saccharide composition on HPLC.

glucoamylase = experiment: Enzymatic hydrolysis by glucoamylase; type: biochemical
Description: Fifty mg aliquots of non-reducing saccharide preparations P I, P II, P III, P IV and P V in Experiment 4 were respectively dissolved in one ml of 50 mM acetate buffer (pH 4.5), admixed with one unit of glucoamylase commercialized by Seikagaku-Kogyo Co., Ltd., Tokyo, Japan, to effect enzymatic hydrolysis at 40° C. for 6 hours. HPLC analysis only detected glucose and trehalose in all resultant mixtures. The percentages and the molecular ratios of glucose to trehalose in each saccharide are in Table 5.

[3] = Reducing power on the Somogyi-Nelson's method expressed by DE; type: physicochemical; conditions: d.s.b.
Description: The reducing powders of these novel high-purity saccharides were determined on the Somogyi-Nelson's method and expressed by DE.

α-glucosidase = experiment: Hydrolysis by α-glucosidase derived from rice; type: biochemical; conditions: pH 4.0, 37°C., 18 hours
Description: (§2) The enzymatic reaction with the α-amylase was as follows: Dissolve 10 mg of a substrate in one ml of 50 mM phosphate buffer (pH 6.9), mix the resultant solution with one unit of the α-amylase, and incubate the resultant mixture at 37° C. for 18 hours. The enzymatic reaction with the α-glucosidase was conducted under the same conditions as in the case of α-amylase except that 50 mM acetate buffer (pH 4.0) was used as a buffer. The enzymatic reaction using the rat intestinal acetone powder was carried out under the same conditions as in the case of α-amylase except that 50 mM maleate buffer (pH 6.0) was used as a buffer. The saccharide compositions obtained by the α-amylase, α-glucosidase and rat intestinal acetone powder are respectively in Tables 6, 7 and 8.

[4] = Maillard reaction with glycine, absorbance at 480 nm; type: physicochemical; conditions: for Coloration degree (480 nm): one % glycine, 10% saccharide, pH 7.0, 100°C., 90 min, 1-cm cell
Description: A solution, containing one % glycine and 10% of a saccharide preparation PI, P II, P III, P IV or P V in Experiment 4 and 50 mM phosphate buffer (pH 7.0), was kept at 100° C. for 90 min, followed by cooling the resultant solution, and determining for absorbance at a wave length of 480 nm in a 1-cm cell. As a control, maltotriose, maltotetraose, maltopentaose, maltohexaose and maltoheptaose, as a material for the saccharide preparations, were similarly treated as above, and measured for absorbance at a wave length of 480 nm.
A solution, containing one % of glycine, 10% of a high-purity trehalose preparation with a purity of 99.5%, d.s.b., obtained by the method in Experiment 17, and 50 mM phosphate buffer (pH 7.0), was kept at 100° C. for 90 min, followed by cooling the resultant solution and determining the absorbance at a wave length of 480 nm in a 1-cm cell. As a control, glucose and maltose were similarly treated as above, and the resultants were determined for absorbance at a wave length of 480 nm.

β-amylase = experiment: Hydrolysis by β-amylase; type: biochemical
[5] = Hydrolysis by rat intestinal acetone powder; type: in vitro ADME; conditions: pH 6.0, 37°C., 18 hours
Description: as §2

α-amylase = experiment: Hydrolysis by α-amylase derived from pig pancreas; type: in vitro ADME
Description: as §2

[6] = tested on: non-reducing saccharide-forming enzyme; type: biochemical, Rhizobium sp. M-11; conditions: for Percentage of newly formed product (P I to P V) on HPLC: 20 w/v % substrate, 2 units/g, 40°C., pH 7.0, 48 hours, label = substrate; for Percentage of remaining substrate on HPLC: non-reducing saccharide-forming enzyme, 48 h, pH 7
Description: An aqueous solution containing 20 w/v % glucose, maltose, maltotriose, maltotetraose, maltopentaose, maltohexaose or maltoheptaose as a substrate was prepared, and mixed with 2 units/g substrate, d.s.b., of the purified enzyme preparation obtained in Experiment 2, and the resultant mixture was subjected to an enzymatic reaction at 40° C. and pH 7.0 for 48 hours. The reaction mixture was desalted and analyzed on high-performance liquid chromatography (HPLC) using "WAKOBEADS WB-T-330 COLUMN", a product of Wako Pure Chemical Industries Ltd., Tokyo, Japan. The HPLC procedure was conducted at ambient temperature and a flow rate of 0.5 ml/min of water as an eluent, and "RI-8012", a differential refractometer commercialized by Tosho Corporation, Tokyo, Japan, was used for analyzing reaction products.

[7] = one unit glucoamylase, pH 4.5, 40°C., 6 hours
[8] = one unit, pH 6.9, 37°C., 18 hours

Compound: OC[C@H]1O[C@H](O[C@H]2O[C@H](CO)[C@@H](O[C@H]3O[C@H](CO)[C@@H](O[C@H]4O[C@H](CO)[C@@H](O)[C@H](O)[C@H]4O)[C@H](O)[C@H]3O)[C@H](O)[C@H]2O)[C@H](O)[C@@H](O)[C@@H]1O [P II, α-maltosyltrehalose]
LD50 [1]: ≥ 50000 mg/kg
Mortality (mice): no mouse died
Percentage of reducing saccharide released (glucose, maltose, maltotriose, maltotetraose or maltopentaose) [2]: 44.4%
Percentage of trehalose released [2]: 44.3%
Hydrolysis by glucoamylase (glucoamylase): hydrolyzed into 2 glucose molecules and one trehalose molecule
Glucose (glucoamylase; [7]): 52.0%
Molecular ratio (Glucose/Trehalose) (glucoamylase; [7]): 2.06
Trehalose (glucoamylase; [7]): 48.0%
DE (reducing power) [3]: 0.35
Saccharide composition of hydrolysate by α-glucosidase: Glucose (α-glucosidase): 52.1%
Saccharide composition of hydrolysate by α-glucosidase: Other saccharides (α-glucosidase): 0.3%
Saccharide composition of hydrolysate by α-glucosidase: Trehalose (α-glucosidase): 47.6%
Coloration degree relative to corresponding material maltooligosaccharides [4]: 3-6%
Coloration degree (480 nm) [4]: 0.018
Hydrolysis by β-amylase (β-amylase): not hydrolyzed
Saccharide composition of hydrolysate by rat intestinal acetone powder: Glucose [5]: 52.5%
Saccharide composition of hydrolysate by rat intestinal acetone powder: Other saccharides [5]: 0.4%
Saccharide composition of hydrolysate by rat intestinal acetone powder: Trehalose [5]: 47.1%
Hydrolysis by α-amylase (α-amylase): not substantially hydrolyzed
Saccharide composition of hydrolysate by α-amylase: G1 (glucose) (α-amylase; [8]): 0
Saccharide composition of hydrolysate by α-amylase: G2 (maltose) (α-amylase; [8]): 0.8
Saccharide composition of hydrolysate by α-amylase: G3 (maltotriose) (α-amylase; [8]): 0.4
Saccharide composition of hydrolysate by α-amylase: P I (α-amylase; [8]): 0
Saccharide composition of hydrolysate by α-amylase: P II (α-amylase; [8]): 98.8

Compound: OC[C@H]1O[C@H](O[C@H]2[C@H](O)[C@@H](O)[C@@H](O[C@H]3[C@H](O)[C@@H](O)[C@@H](O[C@H]4[C@H](O)[C@@H](O)[C@@H](O[C@H]5[C@H](O)[C@@H](O)[C@@H](O[C@H]6[C@H](O)[C@@H](O)[C@@H](O[C@H]7[C@H](O)[C@@H](O)C(O)O[C@@H]7CO)O[C@@H]6CO)O[C@@H]5CO)O[C@@H]4CO)O[C@@H]3CO)O[C@@H]2CO)[C@H](O)[C@@H](O)[C@@H]1O (stereo partly drawn) [Maltoheptaose]
Coloration degree (480 nm) [4]: 0.271
Percentage of newly formed product (P I to P V) on HPLC [6]: 93.4%
Percentage of remaining substrate on HPLC [6]: 6.7%

Compound: OC[C@H]1O[C@H](O[C@H]2[C@H](O)[C@@H](O)[C@@H](O[C@H]3[C@H](O)[C@@H](O)[C@@H](O[C@H]4[C@H](O)[C@@H](O)[C@@H](O[C@H]5[C@H](O)[C@@H](O)C(O)O[C@@H]5CO)O[C@@H]4CO)O[C@@H]3CO)O[C@@H]2CO)[C@H](O)[C@@H](O)[C@@H]1O (stereo partly drawn) [Maltopentaose]
Coloration degree (480 nm) [4]: 0.369
Percentage of newly formed product (P I to P V) on HPLC [6]: 92.7%
Percentage of remaining substrate on HPLC [6]: 7.3%

Next, values leading:

Coloration degree (480 nm) [4]: 0.623
Percentage of newly formed product (P I to P V) on HPLC [6]: 35.0%
Percentage of remaining substrate on HPLC [6]: 65.0%
Compound: OC[C@H]1O[C@H](O[C@H]2[C@H](O)[C@@H](O)[C@@H](O[C@H]3[C@H](O)[C@@H](O)C(O)O[C@@H]3CO)O[C@@H]2CO)[C@H](O)[C@@H](O)[C@@H]1O (stereo partly drawn) [Maltotriose]

Coloration degree (480 nm) [4]: 0.926
Formation of saccharide from substrate [6]: no saccharide is formed
Percentage of remaining substrate on HPLC [6]: 100.0%
Compound: OC[C@H]1O[C@H](O[C@H]2[C@H](O)[C@@H](O)C(O)O[C@@H]2CO)[C@H](O)[C@@H](O)[C@@H]1O (mixture of isomers) [Maltose]

Coloration degree (480 nm) [4]: 1.671
Formation of saccharide from substrate [6]: no saccharide is formed
Percentage of remaining substrate on HPLC [6]: 100.0%
Compound: OC[C@H]1OC(O)[C@H](O)[C@@H](O)[C@@H]1O (stereo partly drawn) [Glucose]

Coloration degree (480 nm) [4]: 0.475
Percentage of newly formed product (P I to P V) on HPLC [6]: 85.6%
Percentage of remaining substrate on HPLC [6]: 14.4%
Compound: OC[C@H]1O[C@H](O[C@H]2[C@H](O)[C@@H](O)[C@@H](O[C@H]3[C@H](O)[C@@H](O)[C@@H](O[C@H]4[C@H](O)[C@@H](O)C(O)O[C@@H]4CO)O[C@@H]3CO)O[C@@H]2CO)[C@H](O)[C@@H](O)[C@@H]1O (stereo partly drawn) [Maltotetraose]

Coloration degree (480 nm) [4]: 0.318
Percentage of newly formed product (P I to P V) on HPLC [6]: 93.5%
Percentage of remaining substrate on HPLC [6]: 6.5%
Compound: OC[C@H]1O[C@H](O[C@H]2[C@H](O)[C@@H](O)[C@@H](O[C@H]3[C@H](O)[C@@H](O)[C@@H](O[C@H]4[C@H](O)[C@@H](O)[C@@H](O[C@H]5[C@H](O)[C@@H](O)[C@@H](O[C@H]6[C@H](O)[C@@H](O)C(O)O[C@@H]6CO)O[C@@H]5CO)O[C@@H]4CO)O[C@@H]3CO)O[C@@H]2CO)[C@H](O)[C@@H](O)[C@@H]1O (stereo partly drawn) [Maltohexaose]
